In ChEMBL document CHEMBL6127055, “Discovery of the therapeutic potential of PPARδ agonist bearing 1,3,4- thiadiazole in inflammatory disorders” (Eur J Med Chem, 2024):

Legend:
UGT1A4 = target: T1, UGT1A4 (Homo sapiens, UniProt P22310); experiment: Inhibition of UGT1A4 (unknown origin) at 10 uM relative to control
T1 sequence (P22310 whole entry): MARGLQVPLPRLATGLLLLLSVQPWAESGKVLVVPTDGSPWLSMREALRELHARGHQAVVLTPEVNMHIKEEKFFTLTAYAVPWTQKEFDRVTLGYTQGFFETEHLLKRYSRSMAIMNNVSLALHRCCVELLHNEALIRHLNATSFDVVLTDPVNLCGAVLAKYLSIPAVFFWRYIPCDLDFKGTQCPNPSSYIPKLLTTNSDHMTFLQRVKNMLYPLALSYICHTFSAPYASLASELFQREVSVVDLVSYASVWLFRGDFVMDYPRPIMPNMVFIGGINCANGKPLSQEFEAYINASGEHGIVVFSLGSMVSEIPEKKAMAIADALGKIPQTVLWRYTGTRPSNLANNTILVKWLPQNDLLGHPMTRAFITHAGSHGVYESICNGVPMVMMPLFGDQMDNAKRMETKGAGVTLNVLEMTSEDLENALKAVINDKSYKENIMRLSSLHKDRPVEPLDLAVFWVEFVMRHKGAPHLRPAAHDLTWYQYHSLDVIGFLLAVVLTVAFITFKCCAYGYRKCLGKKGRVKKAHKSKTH

[1] = Stability in rat plasma assessed as compound remaining after 120 mins; type: ADME, cell-free; conditions: read-out: Stability
CYP2C19 = CYP2C19 (Homo sapiens, UniProt P33261); experiment: Inhibition of CYP2C19 in human liver microsomes at 10 uM using S-mephenytoin 4-hydroxylase as substrate preincubated for 5 mins followed by NADPH regenerating system addition and measured after 15 mins by LC-MS/MS analysis relative to control; type: ADME, Microsome; conditions: probe S-mephenytoin (S-mephenytoin 4-hydroxylase), time 20 min
[2] = Half-life in Sprague-Dawley rat at 10 mg/kg, po measured after 24 hrs by LCMS analysis; type: ADME, organism-based; conditions: in vivo
CYP3A4 = CYP3A4 (Homo sapiens, UniProt P08684); experiment: Inhibition of CYP3A4 in human liver microsomes at 10 uM using midazolam 1'-hydroxylase as substrate preincubated for 5 mins followed by NADPH regenerating system addition and measured after 15 mins by LC-MS/MS analysis relative to control; type: ADME, Microsome; conditions: probe midazolam (midazolam 1'-hydroxylase), time 20 min
[3] = Metabolic stability in dog liver microsomes assessed as compound remaining at 1 uM after 30 mins in presence of NADPH regeneration system by LC-MS/MS analysis; type: ADME, Canis lupus familiaris, Microsome; conditions: read-out: Stability
[4] = Protein binding in rat plasma; type: ADME, cell-free; conditions: read-out: PPB (converted)
CYP2D6 = CYP2D6 (Homo sapiens, UniProt P10635); experiment: Inhibition of CYP2D6 in human liver microsomes at 10 uM using dextromethophan O-demethylase as substrate preincubated for 5 mins followed by NADPH regenerating system addition and measured after 15 mins by LC-MS/MS analysis relative to control; type: ADME, Microsome; conditions: probe dextromethophan (dextromethophan O-demethylase), time 20 min
RAW264.7 = experiment: Cytotoxicity against mouse RAW264.7 cells assessed as reduction in cell viability incubated for 24 hrs by CCK-8 assay; type: toxicity, cell-based; conditions: raw264.7, 24 h
[5] = Cmax in Sprague-Dawley rat at 10 mg/kg, po measured after 24 hrs by LCMS analysis; type: ADME, organism-based; conditions: in vivo
UGT2B7 = target: T2, UGT2B7 (Homo sapiens, UniProt P16662); experiment: Inhibition of UGT2B7 (unknown origin) at 10 uM relative to control
T2 sequence (P16662 whole entry): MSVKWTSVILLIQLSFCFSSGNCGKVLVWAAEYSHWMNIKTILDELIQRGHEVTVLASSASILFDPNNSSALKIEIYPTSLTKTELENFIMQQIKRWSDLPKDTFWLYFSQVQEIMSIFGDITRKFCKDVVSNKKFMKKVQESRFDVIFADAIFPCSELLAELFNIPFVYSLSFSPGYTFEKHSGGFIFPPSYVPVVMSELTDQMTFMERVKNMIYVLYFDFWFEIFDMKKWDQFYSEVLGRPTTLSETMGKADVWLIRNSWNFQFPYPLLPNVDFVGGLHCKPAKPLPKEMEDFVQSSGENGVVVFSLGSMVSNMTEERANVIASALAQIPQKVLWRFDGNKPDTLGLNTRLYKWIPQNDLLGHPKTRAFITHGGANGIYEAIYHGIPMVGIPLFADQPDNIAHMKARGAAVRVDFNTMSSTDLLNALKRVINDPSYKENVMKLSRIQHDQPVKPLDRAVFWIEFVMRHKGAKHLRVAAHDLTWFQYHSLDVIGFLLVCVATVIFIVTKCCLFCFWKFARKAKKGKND

[6] = Apparent permeability across basolateral to apical side in human Caco-2 cells at 10 uM incubated for 5 hrs by LC-MS/MS method; type: ADME, cell-based
[7] = Observed clearance in Sprague-Dawley rat at 1 mg/kg, iv measured after 24 hrs by LCMS analysis; type: ADME, organism-based; conditions: in vivo
[8] = Metabolic stability in mouse liver microsomes assessed as compound remaining at 1 uM after 30 mins in presence of NADPH regeneration system by LC-MS/MS analysis; type: ADME, Microsome; conditions: read-out: Stability
[9] = Volume of distribution at steady state in Sprague-Dawley rat at 1 mg/kg, iv measured after 24 hrs by LCMS analysis; type: ADME, organism-based; conditions: in vivo, read-out: Vdss
[10] = Metabolic stability in human liver microsomes assessed as compound remaining at 1 uM after 30 mins in presence of NADPH regeneration system by LC-MS/MS analysis; type: ADME, Microsome; conditions: read-out: Stability
UGT1A1 = target: T3, UGT1A1 (Homo sapiens, UniProt P22309); experiment: Inhibition of UGT1A1 (unknown origin) at 10 uM relative to control
T3 sequence (P22309 whole entry): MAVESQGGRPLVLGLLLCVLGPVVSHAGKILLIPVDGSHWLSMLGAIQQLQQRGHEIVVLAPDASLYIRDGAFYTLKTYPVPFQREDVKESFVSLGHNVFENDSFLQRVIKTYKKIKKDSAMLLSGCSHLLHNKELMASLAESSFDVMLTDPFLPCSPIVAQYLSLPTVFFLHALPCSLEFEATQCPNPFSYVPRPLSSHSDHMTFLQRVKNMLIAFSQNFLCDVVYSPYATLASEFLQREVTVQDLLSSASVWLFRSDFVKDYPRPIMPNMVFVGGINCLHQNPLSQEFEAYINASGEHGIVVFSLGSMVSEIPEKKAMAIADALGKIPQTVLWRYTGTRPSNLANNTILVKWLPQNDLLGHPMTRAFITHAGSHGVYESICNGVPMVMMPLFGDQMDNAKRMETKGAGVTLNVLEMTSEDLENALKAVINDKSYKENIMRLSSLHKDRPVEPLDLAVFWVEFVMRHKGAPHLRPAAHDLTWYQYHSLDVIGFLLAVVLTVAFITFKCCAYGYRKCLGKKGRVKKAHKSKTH

[11] = AUCinfinity in Sprague-Dawley rat at 1 mg/kg, iv measured after 24 hrs by LCMS analysis; type: ADME, organism-based; conditions: in vivo
[12] = Half-life in Sprague-Dawley rat at 1 mg/kg, iv measured after 24 hrs by LCMS analysis; type: ADME, organism-based; conditions: in vivo
[13] = Apparent permeability across apical to basolateral side in human Caco-2 cells at 10 uM incubated for 5 hrs by LC-MS/MS method; type: ADME, cell-based

Chain of CYP2D6 (P10635 whole entry): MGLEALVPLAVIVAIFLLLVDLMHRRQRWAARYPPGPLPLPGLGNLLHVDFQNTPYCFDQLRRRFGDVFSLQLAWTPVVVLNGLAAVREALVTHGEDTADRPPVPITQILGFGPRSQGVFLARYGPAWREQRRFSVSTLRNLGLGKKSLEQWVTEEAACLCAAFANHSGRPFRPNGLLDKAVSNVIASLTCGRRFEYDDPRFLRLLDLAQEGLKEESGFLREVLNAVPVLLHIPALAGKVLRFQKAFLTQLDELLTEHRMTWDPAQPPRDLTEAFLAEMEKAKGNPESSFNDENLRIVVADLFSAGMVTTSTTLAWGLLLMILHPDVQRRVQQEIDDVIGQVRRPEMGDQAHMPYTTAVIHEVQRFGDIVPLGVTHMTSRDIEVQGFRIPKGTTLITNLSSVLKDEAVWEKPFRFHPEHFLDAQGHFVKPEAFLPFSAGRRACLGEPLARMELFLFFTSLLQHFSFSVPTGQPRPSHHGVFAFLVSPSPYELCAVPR
Chain of CYP2C19 (P33261 whole entry): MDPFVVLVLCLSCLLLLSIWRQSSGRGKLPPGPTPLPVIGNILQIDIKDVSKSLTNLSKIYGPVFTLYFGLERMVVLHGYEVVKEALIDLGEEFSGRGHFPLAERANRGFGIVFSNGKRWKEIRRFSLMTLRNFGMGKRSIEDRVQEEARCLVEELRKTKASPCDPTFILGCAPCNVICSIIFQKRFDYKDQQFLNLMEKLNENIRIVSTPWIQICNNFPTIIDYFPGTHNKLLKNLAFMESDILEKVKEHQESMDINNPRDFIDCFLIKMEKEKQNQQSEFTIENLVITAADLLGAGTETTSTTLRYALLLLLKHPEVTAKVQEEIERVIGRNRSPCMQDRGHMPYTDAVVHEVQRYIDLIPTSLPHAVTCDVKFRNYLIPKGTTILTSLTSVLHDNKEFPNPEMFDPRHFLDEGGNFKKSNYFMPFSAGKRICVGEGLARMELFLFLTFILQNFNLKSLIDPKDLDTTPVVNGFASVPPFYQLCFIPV
Chain of CYP3A4 (P08684 whole entry): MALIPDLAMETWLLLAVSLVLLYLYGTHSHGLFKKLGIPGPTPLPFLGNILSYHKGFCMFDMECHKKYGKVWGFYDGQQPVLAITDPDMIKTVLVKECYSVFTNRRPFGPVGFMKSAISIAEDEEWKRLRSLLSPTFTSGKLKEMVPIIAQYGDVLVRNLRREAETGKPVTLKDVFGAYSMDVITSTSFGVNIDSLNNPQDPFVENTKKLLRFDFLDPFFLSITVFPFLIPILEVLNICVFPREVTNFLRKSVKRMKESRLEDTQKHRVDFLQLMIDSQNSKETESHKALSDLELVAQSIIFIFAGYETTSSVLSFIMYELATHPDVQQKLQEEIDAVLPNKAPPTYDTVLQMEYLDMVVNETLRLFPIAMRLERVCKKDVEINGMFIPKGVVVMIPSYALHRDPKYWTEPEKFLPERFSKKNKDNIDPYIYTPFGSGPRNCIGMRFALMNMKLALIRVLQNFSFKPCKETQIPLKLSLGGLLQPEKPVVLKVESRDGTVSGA

Which inhibition at 10 µM (UGT1A4) does the source give for `Cc1cc(SCc2nnc(-c3ccc(C(F)(F)F)cc3)s2)ccc1OCC(=O)O` here?
The inhibition at 10 µM was 12.6%.

And the remaining at 2 h [1]?
The remaining at 2 h was 94.3%.

What about the inhibition at 0.25 h, 10 µM (CYP2C19) of the same compound?
The inhibition at 0.25 h, 10 µM was 0%.

What about the half-life [2] of the same compound?
The half-life was 3.4 h.

And the inhibition at 0.25 h, 10 µM (CYP3A4)?
Its inhibition at 0.25 h, 10 µM is 0%.

And the remaining at 0.5 h, 1 µM [3]?
Its remaining at 0.5 h, 1 µM is 93.8%.

What about the fraction unbound [4] of the same compound?
The fraction unbound was 0.002.

And the inhibition at 0.25 h, 10 µM (CYP2D6)?
Its inhibition at 0.25 h, 10 µM is 0%.

What about the Activity (RAW264.7) of the same compound?
Its Activity is “Non-Toxic”.

What about the Cmax [5] of the same compound?
Its Cmax is 16.3 µM.

And the inhibition at 10 µM (UGT2B7)?
Its inhibition at 10 µM is 12.2%.

What about the Papp B→A at 5 h, 10 µM [6] of the same compound?
The Papp B→A at 5 h, 10 µM was 0.224 ×10⁻⁶ cm/s.

And the clearance [7]?
Its clearance is 8.88 mL/min/kg.

What about the remaining at 0.5 h, 1 µM [8] of the same compound?
Its remaining at 0.5 h, 1 µM is 86.6%.

What about the Vd [9] of the same compound?
Its Vd is 3.12 L/kg.

And the remaining at 0.5 h, 1 µM [10]?
Its remaining at 0.5 h, 1 µM is 91%.

And the inhibition at 10 µM (UGT1A1)?
Its inhibition at 10 µM is 13.9%.

What about the AUC(0-inf) [11] of the same compound?
The AUC(0-inf) was 4.33 µM·h.

What about the half-life [12] of the same compound?
The half-life was 6 h.

What about the Papp A→B at 5 h, 10 µM [13] of the same compound?
The Papp A→B at 5 h, 10 µM was 0.147 ×10⁻⁶ cm/s.
